Reference: the NIST ThermoML archive (doi:10.1016/j.jct.2017.07.008)
“And” between values parts separate entries of the source, which are not always exact repeats. Equal values may be shown once.

Conditions: for mass density / viscosity / speed of sound / vapor or sublimation pressure: Liquid; for mass density: Vibrating tube method; for surface tension liquid-gas: Drop volume; for viscosity: Capillary tube (Ostwald / Ubbelohde) method; for speed of sound: Frequency=3 MHz, Single path-length method; for vapor or sublimation pressure: Ebulliometric method (Recirculating still)

OCc1cccs1 [2-thiophenemethanol]
Conditions	mass density	speed of sound [m/s]	viscosity [mPa·s]
313.15 K, 55000 kPa	1216.51 kg/m3	–	–
313.15 K, 60000 kPa	1218.68 kg/m3	–	–
313.15 K, 65000 kPa	1220.8 kg/m3	–	–
315.65 K, 100 kPa	1186.63 kg/m3	1450.4	4.147
318.15 K, 100 kPa	1184.39 kg/m3	1443.2	3.87
318.15 K, 2000 kPa	1185.52 kg/m3	–	–
318.15 K, 5000 kPa	1187.27 kg/m3	–	–
318.15 K, 7000 kPa	1188.42 kg/m3	–	–
318.15 K, 10000 kPa	1190.12 kg/m3	–	–
318.15 K, 15000 kPa	1192.88 kg/m3	–	–
318.15 K, 20000 kPa	1195.57 kg/m3	–	–
318.15 K, 25000 kPa	1198.18 kg/m3	–	–
318.15 K, 30000 kPa	1200.72 kg/m3	–	–
318.15 K, 35000 kPa	1203.2 kg/m3	–	–
318.15 K, 40000 kPa	1205.62 kg/m3	–	–
318.15 K, 45000 kPa	1207.98 kg/m3	–	–
318.15 K, 50000 kPa	1210.29 kg/m3	–	–
318.15 K, 55000 kPa	1212.54 kg/m3	–	–
318.15 K, 60000 kPa	1214.74 kg/m3	–	–
318.15 K, 65000 kPa	1216.9 kg/m3	–	–
320.65 K, 100 kPa	1182.14 kg/m3	1436	3.615
323.15 K, 100 kPa	1179.88 kg/m3	1428.8	3.355
323.15 K, 2000 kPa	1181.03 kg/m3	–	–
323.15 K, 5000 kPa	1182.82 kg/m3	–	–
323.15 K, 7000 kPa	1183.99 kg/m3	–	–
323.15 K, 10000 kPa	1185.73 kg/m3	–	–
323.15 K, 15000 kPa	1188.55 kg/m3	–	–
323.15 K, 20000 kPa	1191.29 kg/m3	–	–
323.15 K, 25000 kPa	1193.95 kg/m3	–	–
323.15 K, 30000 kPa	1196.55 kg/m3	–	–
323.15 K, 35000 kPa	1199.07 kg/m3	–	–
323.15 K, 40000 kPa	1201.53 kg/m3	–	–
323.15 K, 45000 kPa	1203.93 kg/m3	–	–
323.15 K, 50000 kPa	1206.28 kg/m3	–	–
323.15 K, 55000 kPa	1208.56 kg/m3	–	–
323.15 K, 60000 kPa	1210.8 kg/m3	–	–
323.15 K, 65000 kPa	1212.99 kg/m3	–	–
325.65 K, 100 kPa	1177.63 kg/m3	1421.6	3.17
328.15 K, 100 kPa	1175.35 kg/m3 and 1175.36 kg/m3	1414.5	2.957
328.15 K, 2000 kPa	1176.53 kg/m3	–	–
328.15 K, 5000 kPa	1178.35 kg/m3	–	–
328.15 K, 7000 kPa	1179.55 kg/m3	–	–
328.15 K, 10000 kPa	1181.33 kg/m3	–	–
328.15 K, 15000 kPa	1184.21 kg/m3	–	–
328.15 K, 20000 kPa	1187 kg/m3	–	–
328.15 K, 25000 kPa	1189.72 kg/m3	–	–
328.15 K, 30000 kPa	1192.36 kg/m3	–	–
328.15 K, 35000 kPa	1194.93 kg/m3	–	–
328.15 K, 40000 kPa	1197.44 kg/m3	–	–
328.15 K, 45000 kPa	1199.88 kg/m3	–	–
328.15 K, 50000 kPa	1202.26 kg/m3	–	–
328.15 K, 55000 kPa	1204.58 kg/m3	–	–
328.15 K, 60000 kPa	1206.86 kg/m3	–	–
328.15 K, 65000 kPa	1209.08 kg/m3	–	–
330.65 K, 100 kPa	1173.09 kg/m3	1407.3	2.785
333.15 K, 100 kPa	1170.8 kg/m3 and 1170.82 kg/m3	1400.1	2.628
333.15 K, 2000 kPa	1172 kg/m3	–	–
333.15 K, 5000 kPa	1173.87 kg/m3	–	–
333.15 K, 7000 kPa	1175.1 kg/m3	–	–
333.15 K, 10000 kPa	1176.91 kg/m3	–	–
333.15 K, 15000 kPa	1179.85 kg/m3	–	–
333.15 K, 20000 kPa	1182.7 kg/m3	–	–
333.15 K, 25000 kPa	1185.47 kg/m3	–	–
333.15 K, 30000 kPa	1188.16 kg/m3	–	–
333.15 K, 35000 kPa	1190.78 kg/m3	–	–
333.15 K, 40000 kPa	1193.33 kg/m3	–	–
333.15 K, 45000 kPa	1195.82 kg/m3	–	–
333.15 K, 50000 kPa	1198.24 kg/m3	–	–
333.15 K, 55000 kPa	1200.6 kg/m3	–	–
333.15 K, 60000 kPa	1202.91 kg/m3	–	–
333.15 K, 65000 kPa	1205.17 kg/m3	–	–
335.65 K, 100 kPa	1168.53 kg/m3	1392.9	2.486
338.15 K, 100 kPa	1166.23 kg/m3 and 1166.25 kg/m3	1385.8	2.372
338.15 K, 2000 kPa	1167.46 kg/m3	–	–
338.15 K, 5000 kPa	1169.37 kg/m3	–	–
338.15 K, 7000 kPa	1170.63 kg/m3	–	–
338.15 K, 10000 kPa	1172.48 kg/m3	–	–
338.15 K, 15000 kPa	1175.48 kg/m3	–	–
338.15 K, 20000 kPa	1178.39 kg/m3	–	–
338.15 K, 25000 kPa	1181.22 kg/m3	–	–
338.15 K, 30000 kPa	1183.96 kg/m3	–	–
338.15 K, 35000 kPa	1186.63 kg/m3	–	–
338.15 K, 40000 kPa	1189.22 kg/m3	–	–
338.15 K, 45000 kPa	1191.75 kg/m3	–	–
338.15 K, 50000 kPa	1194.21 kg/m3	–	–
338.15 K, 55000 kPa	1196.62 kg/m3	–	–
338.15 K, 60000 kPa	1198.96 kg/m3	–	–
338.15 K, 65000 kPa	1201.25 kg/m3	–	–

Conditions	surface tension liquid-gas [mN/m]	vapor or sublimation pressure [kPa]
315.65 K	41.73	–
318.15 K	41.48	–
320.65 K	41.22	–
323.15 K	40.95	–
325.65 K	40.67	–
328.15 K	40.4	–
330.65 K	40.1	–
333.15 K	39.8	–
335.65 K	39.51	–
338.15 K	39.24	–
351.15 K	–	0.545
354.25 K	–	0.665
357.17 K	–	0.785
361.3 K	–	1.025
365.19 K	–	1.275
366.38 K	–	1.355
367.49 K	–	1.415
368.14 K	–	1.475
369.77 K	–	1.61
372.56 K	–	1.88
373.21 K	–	1.96
377.74 K	–	2.44
382.13 K	–	3.06
386.07 K	–	3.675
387.56 K	–	3.93
388.56 K	–	4.15
391.84 K	–	4.77
393.87 K	–	5.25
397.94 K	–	6.25
399.72 K	–	6.8
402.41 K	–	7.6
404.37 K	–	8.25
406.56 K	–	9
408.27 K	–	9.665
411.5 K	–	10.96
415.06 K	–	12.6
416.56 K	–	13.38
418.63 K	–	14.47
420.23 K	–	15.36
422.21 K	–	16.51
424.64 K	–	18.05
426.07 K	–	19
428.27 K	–	20.52
429.37 K	–	21.34
431.17 K	–	22.77
432.56 K	–	23.88
433.65 K	–	24.78
